Four molecules from patent publication US12122815B2, “GIP receptor agonist peptide compounds and uses thereof” (TAKEDA PHARMACEUTICAL COMPANY LIMITED, priority 2018, dated 2024) can be followed below.

One assay deals with T1, human GLP-1R (Homo sapiens, UniProt P43220).
T1 construct: FLAG (N)
Kind of assay: Agonist activity on human GLP-1R, CRE-luciferase reporter assay with increase in intracellular cAMP as indicator (hGLP-1R/CRE-luc/CHO-K1 cell). Format: cell-based. An excerpt:
(§1) Evaluation of Agonist Activity on Human GIPR and Human GLP-1R with Increase in Intracellular cAMP Concentration as Indicator
(§2) A) Evaluation of Agonist Activity on Human GIPR and Human GLP-IR with Increase in Intracellular cAMP Concentration as Indicator
(§3) (3) Construction of Reporter Plasmid
(§4) Four Copies of a cAMP responsive sequence and a Zeocin resistance gene were transferred to pGL3(R2.2)-Basic Vector (Promega) to construct a Cre-luc(Zeo) reporter plasmid.
(5) Construction of Expression Plasmid of Human GLP-1R Gene
The human GLP-IR gene having an identical sequence to Genebank Accession No. NM_002062 was cloned into a pIRESneo3 vector to prepare hGLP-1/pIRESneo3.
(6) Transfer of Human GLP-1R Gene and Reporter Plasmid to CHO-K1 Cell and Obtaining of Expressing Cell
The Cre-luc (Zeo) obtained in (3) and the plasmid hGLP-1/pIRESneo3 obtained in (5) were transferred to the CHO-K1 cell to obtain a transformant. Subsequently, the cell line inducing the luciferase expression, hGLP-1R/CRE-luc/CHO-K1 cell, was selected from the obtained transformant by adding GLP-1.
(§5) 25 μL each of the hGIPR/CRE-LUC/CHO-K1 cell was inoculated in a 384-well white plate (Corning) in such a way as to provide 5×10^3 cells/well and cultured in a HamF12 medium containing 10% fetal bovine serum, 100 U/mL penicillin, and 100 μg/mL streptomycin in a CO2 incubator at 37° C. overnight. 5 μL of a medium containing a test compound was added to the cells and incubated for 4 hours at the indicated concentration in a CO2 incubator at 37° C. Steady-Glo (Promega) was added in amounts of 30 μL and shaken under light shielding. 20 Minutes later, luciferase activity was measured using a plate reader Envision (PerkinElmer). The GIPR agonist activity was calculated with increase in intracellular cAMP concentration as the indicator when the luciferase activity in the presence of 10 nM of GIP was 100% and the luciferase activity in the case of adding DMSO instead of the test compound was 0%.
The GLP-IR agonist activity was assayed in the same manner as above using the hGLP-1R/CRE-luc/CHO-K1 cell.
On the technique in general: Reporter assays use an easily measured gene product as a stand-in for the process of interest.

For another assay, the target named is T2, human GIPR (Homo sapiens, UniProt P48546).
T2 construct: FLAG (N)
T2 sequence (P48546 22-466): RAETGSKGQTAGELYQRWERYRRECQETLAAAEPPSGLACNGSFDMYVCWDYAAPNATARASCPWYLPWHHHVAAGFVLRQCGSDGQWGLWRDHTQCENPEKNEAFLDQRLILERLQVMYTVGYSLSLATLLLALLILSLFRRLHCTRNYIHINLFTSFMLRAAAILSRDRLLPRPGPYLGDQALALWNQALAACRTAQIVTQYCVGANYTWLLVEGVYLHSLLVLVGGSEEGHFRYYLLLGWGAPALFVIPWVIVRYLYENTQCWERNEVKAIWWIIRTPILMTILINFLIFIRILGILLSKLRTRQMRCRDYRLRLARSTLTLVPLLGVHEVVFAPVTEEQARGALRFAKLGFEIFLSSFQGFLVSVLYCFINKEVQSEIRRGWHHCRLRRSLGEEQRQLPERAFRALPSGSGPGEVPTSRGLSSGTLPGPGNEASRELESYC
Kind of assay: Agonist activity on human GIPR, CRE-luciferase reporter assay with increase in intracellular cAMP as indicator (hGIPR/CRE-LUC/CHO-K1 cell). Format: cell-based.
Source text: as §1, §2
(1) Construction of Expression Plasmid of Human GIPR Gene. The Human GIPR Gene Having an Identical Sequence to Genebank Accession No. U39231 was Cloned into a pMSRα-Neo Vector to Prepare hGIPR/pMSRα-Neo.
(2) Construction of Reporter Plasmid Expressing Cell Luciferase Reporter Gene with a cAMP-Responsive Sequence Located Upstream was Transferred to a CHO-K1 Cell to Construct a CRE-LUC/CHO-K1 Cell.
as §3, §4
(4) Transfer of Human GIPR Gene to CRE-LUC/CHO-K1 Cell and Obtaining of Expressing Cell the Plasmid hGIPR/pMSRα-Neo Obtained in (1) was Transferred to the CRELUC.
CHO-K1 cell obtained in (2) to obtain a transformant. Subsequently, the cell line inducing the luciferase expression, hGIPR/CRE-LUC/CHO-K1 cell, was selected from the obtained transformant by adding GIP.
as §5, with “Steady-Glo (Promega) was added in amounts of 30 μL and shaken under light shielding.” left out

T1 sequence (P43220 24-463): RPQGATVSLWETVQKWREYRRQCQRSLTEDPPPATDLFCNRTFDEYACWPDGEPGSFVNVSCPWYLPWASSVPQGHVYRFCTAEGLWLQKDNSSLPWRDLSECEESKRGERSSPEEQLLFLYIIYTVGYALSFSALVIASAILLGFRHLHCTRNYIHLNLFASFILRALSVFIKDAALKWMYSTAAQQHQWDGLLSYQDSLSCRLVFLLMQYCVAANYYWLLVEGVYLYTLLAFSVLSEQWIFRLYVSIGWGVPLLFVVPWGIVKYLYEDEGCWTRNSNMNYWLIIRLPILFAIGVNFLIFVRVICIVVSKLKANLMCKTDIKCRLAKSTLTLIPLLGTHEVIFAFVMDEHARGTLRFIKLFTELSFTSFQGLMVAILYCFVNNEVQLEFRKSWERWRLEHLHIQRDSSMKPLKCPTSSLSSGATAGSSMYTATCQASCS

In the case of `CCCCCCCCCCCCCCCC(=O)NCCCC[C@H](NC(=O)[C@H](CO)NC(=O)[C@@H]1CCCN1C(=O)[C@@H]1CCCN1C(=O)[C@@H]1CCCN1C(=O)[C@H](C)NC(=O)CNC(=O)[C@H](CO)NC(=O)[C@H](CO)NC(=O)[C@@H]1CCCN1C(=O)CNC(=O)CNC(=O)[C@H](CCCCN)NC(=O)[C@H](CC(C)C)NC(=O)[C@H](CC(C)C)NC(=O)[C@H](Cc1c[nH]c2ccccc12)NC(=O)[C@H](CCCCN)NC(=O)[C@@H](NC(=O)[C@H](Cc1ccccc1)NC(=O)[C@H](CCC(=O)O)NC(=O)C(C)(C)NC(=O)[C@H](CCC(N)=O)NC(=O)[C@H](C)NC(=O)[C@H](CCC(N)=O)NC(=O)[C@H](CCCCN)NC(=O)[C@H](CC(=O)O)NC(=O)[C@H](CC(C)C)NC(=O)[C@H](CC(C)C)NC(=O)[C@@H](NC(=O)[C@H](CO)NC(=O)[C@H](Cc1ccc(O)cc1)NC(=O)[C@H](CC(=O)O)NC(=O)[C@H](CO)NC(=O)[C@H](CCCCN)NC(=O)[C@@H](NC(=O)[C@@H](NC(=O)CNC(=O)[C@H](CCC(=O)O)NC(=O)C(C)(C)NC(=O)[C@@H](N)Cc1ccc(O)cc1)[C@@H](C)O)C(C)C)[C@@H](C)CC)C(C)C)C(N)=O` [Compound 10], the values for the concentration for a half-maximal effect (EC50) on human GLP-1R and at human GIPR were 210 nM and 0.03 nM, respectively.
As for `CCCCCCCCCCCCCCCC(=O)NCCCC[C@H](NC(=O)[C@H](CO)NC(=O)[C@@H]1CCCN1C(=O)[C@@H]1CCCN1C(=O)[C@@H]1CCCN1C(=O)[C@H](C)NC(=O)CNC(=O)[C@H](CO)NC(=O)[C@H](CO)NC(=O)[C@@H]1CCCN1C(=O)[C@H](CCCCN)NC(=O)[C@H](CCC(N)=O)NC(=O)[C@H](C)NC(=O)[C@H](CC(C)C)NC(=O)[C@H](CC(C)C)NC(=O)[C@H](Cc1c[nH]c2ccccc12)NC(=O)[C@H](CC(N)=O)NC(=O)[C@@H](NC(=O)[C@H](Cc1ccccc1)NC(=O)[C@H](CC(=O)O)NC(=O)[C@H](CCC(N)=O)NC(=O)[C@H](CCC(N)=O)NC(=O)[C@H](Cc1c[nH]cn1)NC(=O)[C@@H](NC(=O)[C@H](CCCCN)NC(=O)[C@H](CC(=O)O)NC(=O)[C@H](CCSC)NC(=O)[C@H](C)NC(=O)[C@@H](NC(=O)[C@H](CO)NC(=O)[C@H](Cc1ccc(O)cc1)NC(=O)[C@H](CC(=O)O)NC(=O)[C@H](CO)NC(=O)[C@@H](NC(=O)[C@H](Cc1ccccc1)NC(=O)[C@@H](NC(=O)CNC(=O)[C@H](CCC(=O)O)NC(=O)[C@H](C)NC(=O)[C@@H](N)Cc1ccc(O)cc1)[C@@H](C)O)[C@@H](C)CC)[C@@H](C)CC)[C@@H](C)CC)C(C)C)C(N)=O` [Compound 12], at human GLP-1R, the EC50 is 86 nM.
For `CCCCCCCCCCCCCCCCCCCC(=O)NCC(=O)NCC(=O)NCC(=O)NCC(=O)NCCCC[C@H](NC(=O)[C@H](CO)NC(=O)[C@@H]1CCCN1C(=O)[C@@H]1CCCN1C(=O)[C@@H]1CCCN1C(=O)[C@H](C)NC(=O)CNC(=O)[C@H](CO)NC(=O)[C@H](CO)NC(=O)[C@@H]1CCCN1C(=O)CNC(=O)CNC(=O)[C@H](CCCCN)NC(=O)[C@H](CC(C)C)NC(=O)[C@H](CC(C)C)NC(=O)[C@H](Cc1c[nH]c2ccccc12)NC(=O)[C@H](CCCCN)NC(=O)[C@@H](NC(=O)[C@H](Cc1ccccc1)NC(=O)[C@H](CCC(=O)O)NC(=O)C(C)(C)NC(=O)[C@H](CCC(N)=O)NC(=O)[C@H](C)NC(=O)[C@H](CCC(N)=O)NC(=O)[C@H](CCCCN)NC(=O)[C@H](CC(=O)O)NC(=O)[C@H](CC(C)C)NC(=O)[C@H](CC(C)C)NC(=O)[C@@H](NC(=O)[C@H](CO)NC(=O)[C@H](Cc1ccc(O)cc1)NC(=O)[C@H](CC(=O)O)NC(=O)[C@H](CO)NC(=O)[C@H](CCCCN)NC(=O)[C@@H](NC(=O)[C@@H](NC(=O)CNC(=O)[C@H](CCC(=O)O)NC(=O)C(C)(C)NC(=O)[C@@H](N)Cc1ccc(O)cc1)[C@@H](C)O)C(C)C)[C@@H](C)CC)C(C)C)C(N)=O` [Compound 8], the EC50 on human GLP-1R was 180 nM; at human GIPR, 0.04 nM.
Take `CC[C@H](C)[C@H](NC(=O)[C@H](CO)NC(=O)[C@H](Cc1ccc(O)cc1)NC(=O)[C@H](CC(=O)O)NC(=O)[C@H](CO)NC(=O)[C@H](CCCCN)NC(=O)[C@@H](NC(=O)[C@@H](NC(=O)CNC(=O)[C@H](CCC(=O)O)NC(=O)C(C)(C)NC(=O)[C@@H](N)Cc1ccc(O)cc1)[C@@H](C)O)C(C)C)C(=O)N[C@@H](CC(C)C)C(=O)N[C@@H](CC(C)C)C(=O)N[C@@H](CC(=O)O)C(=O)N[C@@H](CCCCN)C(=O)N[C@@H](CCC(N)=O)C(=O)N[C@@H](C)C(=O)N[C@@H](CCC(N)=O)C(=O)NC(C)(C)C(=O)N[C@@H](CCC(=O)O)C(=O)N[C@@H](Cc1ccccc1)C(=O)N[C@H](C(=O)N[C@@H](CCCCN)C(=O)N[C@@H](Cc1c[nH]c2ccccc12)C(=O)N[C@@H](CC(C)C)C(=O)N[C@@H](CC(C)C)C(=O)N[C@@H](CCCCN)C(=O)NCC(=O)NCC(=O)N1CCC[C@H]1C(=O)N[C@@H](CO)C(=O)N[C@@H](CO)C(=O)NCC(=O)N[C@@H](C)C(=O)N1CCC[C@H]1C(=O)N1CCC[C@H]1C(=O)N1CCC[C@H]1C(=O)N[C@@H](CO)C(=O)N[C@@H](CCCCNC(=O)CCCCCCCCCCCCCCC(=O)O)C(N)=O)C(C)C` [Compound 11]: the figures for the EC50 on human GLP-1R and at human GIPR were 180 nM and 0.1 nM, respectively.

What is called EC50 is the concentration at which the effect is half-maximal. A lower EC50 goes with an effect from little substance.
